Laboratory results as given in patent US20050142169A1, “Palatability enhanced composition and method for animal consumption” (priority 2003, published 2005).

Key:
dogs [1] = test: two-bowl preference test, Example 4 (Canine w/d, 2.4% test flavor); assay type: in vivo, dog; conditions: dry wt. of kibble, test flavor 2.4%
Method: The experiment comprised mixing various amounts of 2,5-dimethyl-4-hydroxy-3(2H)-furanone with a commercial liquid palatant enhancer as a carrier to form a test flavor. Each of the test flavors (2.4%, dry weight basis) was topically applied to a dry, commercial dog food (Canine w/d from Hill's Pet Nutrition, Inc.) after application of a commercial dry palatant enhancer in choice white grease (0.6%, dry weight basis) to form a test composition. […] The control compositions were prepared by topically applying the commercial liquid palatant enhancer (2.4% dry weight basis) to the dry, commercial dog food (Canine w/d) after application of a commercial dry palatant enhancer in choice white grease (0.6%, dry weight basis). Palatability was determined by comparing the test composition and the control composition in a standard two-bowl preference test over two days with 20 dogs as described in Example 1.

cats = test: two-bowl preference test, Example 5 (Feline w/d); assay type: in vivo, cat; conditions: dry wt. of kibble
Text: Finally, a commercial dry palatant enhancer (1.4% dry weight basis) was topically applied to the dry kibbles to complete the test composition.

dogs [2] = test: two-bowl preference test, Example 3 (Canine w/d, 3.5% test flavor); assay type: in vivo, dog; conditions: dry wt. of kibble, test flavor 3.5%
Method: Each of the test flavors (3.5%, dry weight basis) was topically applied to a dry, commercial dog food (Canine w/d from Hill's Pet Nutrition, Inc.) after topical application of a commercial dry palatant enhancer in choice white grease (0.6%, dry weight basis) to form a test composition. Each test composition was compared against a control composition in a palatability test as described in Example 1. The control compositions were prepared by topically applying the commercial liquid palatant enhancer (3.5% dry weight basis) to the dry, commercial dog food (Canine w/d) after application of a commercial dry palatant enhancer in choice white grease (0.6%, dry weight basis). Palatability was determined by comparing the test composition and the control composition in a standard two-bowl preference test over two days with 20 dogs as described in Example 1.

[3] = Exp. No. 8, second set of experiments, 174.0 ppm
[4] = Exp. No. 9, second set of experiments, 217.5 ppm
[5] = Exp. No. 10, second set of experiments, 282.8 ppm
[6] = Exp. No. 7, second set of experiments, 5.0 ppm
[7] = Exp. No. 8, second set of experiments, 10.0 ppm
[8] = Exp. No. 9, second set of experiments, 20.0 ppm
[9] = Exp. No. 10, second set of experiments, 30.0 ppm
[10] = Exp. No. 11, second set of experiments, 40.0 ppm
[11] = Exp. No. 12, second set of experiments, 50.0 ppm

CC1=C(O)C(=O)C(C)O1 (stereo not shown) [2,5-dimethyl-4-hydroxy-3(2H)-furanone]
Intake Ratio (dogs [1]; [3]): 0.5568
Preference (%) control composition (dogs [1]; [3]): 40.0%
Preference (%) test composition (dogs [1]; [3]): 56.0%
Status (vs. control) (dogs [1]; [3]): Parity
Intake Ratio (dogs [1]; [4]): 0.5453
Preference (%) control composition (dogs [1]; [4]): 40.0%
Preference (%) test composition (dogs [1]; [4]): 60.0%
Status (vs. control) (dogs [1]; [4]): Parity
Intake Ratio (dogs [1]; [5]): 0.7429
Preference (%) control composition (dogs [1]; [5]): 16.0%
Preference (%) test composition (dogs [1]; [5]): 84.0%
Status (vs. control) (dogs [1]; [5]): Win
Intake Ratio (cats; Exp. No. 1, 5.0 ppm): 0.7676
Preference (%) control composition (cats; Exp. No. 1, 5.0 ppm): 8.0%
Preference (%) test composition (cats; Exp. No. 1, 5.0 ppm): 92.0%
Status (vs. control) (cats; Exp. No. 1, 5.0 ppm): Win
Intake Ratio (cats; Exp. No. 2, 10.0 ppm): 0.8135
Preference (%) control composition (cats; Exp. No. 2, 10.0 ppm): 8.0%
Preference (%) test composition (cats; Exp. No. 2, 10.0 ppm): 88.0%
Status (vs. control) (cats; Exp. No. 2, 10.0 ppm): Win
Intake Ratio (cats; Exp. No. 3, 20.0 ppm): 0.8151
Preference (%) control composition (cats; Exp. No. 3, 20.0 ppm): 12.0%
Preference (%) test composition (cats; Exp. No. 3, 20.0 ppm): 88.0%
Status (vs. control) (cats; Exp. No. 3, 20.0 ppm): Win
Intake Ratio (cats; Exp. No. 4, 30.0 ppm): 0.7546
Preference (%) control composition (cats; Exp. No. 4, 30.0 ppm): 20.0%
Preference (%) test composition (cats; Exp. No. 4, 30.0 ppm): 80.0%
Status (vs. control) (cats; Exp. No. 4, 30.0 ppm): Win
Intake Ratio (cats; Exp. No. 5, 40.0 ppm): 0.7626
Preference (%) control composition (cats; Exp. No. 5, 40.0 ppm): 12.0%
Preference (%) test composition (cats; Exp. No. 5, 40.0 ppm): 88.0%
Status (vs. control) (cats; Exp. No. 5, 40.0 ppm): Win
Intake Ratio (cats; Exp. No. 6, 50.0 ppm): 0.8505
Preference (%) control composition (cats; Exp. No. 6, 50.0 ppm): 8.0%
Preference (%) test composition (cats; Exp. No. 6, 50.0 ppm): 92.0%
Status (vs. control) (cats; Exp. No. 6, 50.0 ppm): Win
Intake Ratio (cats; [6]): 0.9385
Preference (%) control composition (cats; [6]): 0.0%
Preference (%) test composition (cats; [6]): 100.0%
Status (vs. control) (cats; [6]): Win
Intake Ratio (cats; [7]): 0.7990
Preference (%) control composition (cats; [7]): 12.0%
Preference (%) test composition (cats; [7]): 84.0%
Status (vs. control) (cats; [7]): Win
Intake Ratio (cats; [8]): 0.8128
Preference (%) control composition (cats; [8]): 8.0%
Preference (%) test composition (cats; [8]): 92.0%
Status (vs. control) (cats; [8]): Win
Intake Ratio (cats; [9]): 0.8912
Preference (%) control composition (cats; [9]): 4.0%
Preference (%) test composition (cats; [9]): 92.0%
Status (vs. control) (cats; [9]): Win
Intake Ratio (cats; [10]): 0.8012
Preference (%) control composition (cats; [10]): 16.0%
Preference (%) test composition (cats; [10]): 80.0%
Status (vs. control) (cats; [10]): Win
Intake Ratio (cats; [11]): 0.8339
Preference (%) control composition (cats; [11]): 12.5%
Preference (%) test composition (cats; [11]): 87.5%
Status (vs. control) (cats; [11]): Win
Intake Ratio (dogs [2]; Exp. No. 1, 87.1 ppm): 0.7301
Preference (%) control composition (dogs [2]; Exp. No. 1, 87.1 ppm): 16.7%
Preference (%) test composition (dogs [2]; Exp. No. 1, 87.1 ppm): 83.3%
Status (vs. control) (dogs [2]; Exp. No. 1, 87.1 ppm): Win
Intake Ratio (dogs [2]; Exp. No. 2, 130.5 ppm): 0.7323
Preference (%) control composition (dogs [2]; Exp. No. 2, 130.5 ppm): 8.0%
Preference (%) test composition (dogs [2]; Exp. No. 2, 130.5 ppm): 88.0%
Status (vs. control) (dogs [2]; Exp. No. 2, 130.5 ppm): Win
Intake Ratio (dogs [2]; Exp. No. 3, 174.0 ppm): 0.6669
Preference (%) control composition (dogs [2]; Exp. No. 3, 174.0 ppm): 24.0%
Preference (%) test composition (dogs [2]; Exp. No. 3, 174.0 ppm): 76.0%
Status (vs. control) (dogs [2]; Exp. No. 3, 174.0 ppm): Win
Intake Ratio (dogs [2]; Exp. No. 4, 217.5 ppm): 0.5713
Preference (%) control composition (dogs [2]; Exp. No. 4, 217.5 ppm): 40.0%
Preference (%) test composition (dogs [2]; Exp. No. 4, 217.5 ppm): 60.0%
Status (vs. control) (dogs [2]; Exp. No. 4, 217.5 ppm): Parity
